Measurements as given in US8580816B2, “Carboxylic acid derivatives having an oxazolo[5,4-b]pyridine ring” (Sanofi, priority 2011, dated 2013).

Each compound was assayed against T1, human Edg 1 receptor (Homo sapiens, UniProt P21453) (assay: GTP-γ-S assay using human Edg 1 receptors (scintillation proximity assay, CHO Flp-In membrane preparation)). Settings: test compound at 10 μM; relative to high control 10 μM S1P = 100% activation; membranes of CHO Flp-In cells overexpressing human Edg 1; triplicate.
T1 construct: FLAG (N); expressed in transfected cells
Assay type: biochemical
Source text: A) GTP-γ-S Assay Using Human Edg 1 Receptors
In order to determine the Edg 1 receptor activation by the compounds of the invention, a GTP-γ-S ((GTP-γ-S=guanosine 5′-[thio]triphosphate) assay for G-protein coupled receptor binding based on the scintillation proximity assay principle was used, employing a cell membrane preparation from a CHO Flp-In cell line which constitutively overexpresses the human Edg 1 receptor.
A membrane preparation was obtained by standard methods from the afore-described CHO Flp-In cell line constitutively overexpressing the human Edg 1 receptor. Briefly, the cryopreserved cells were taken in culture and grown until confluency in T175 cell culture flasks (Becton Dickinson, cat. no. 35 5001). Cell culture was stopped by washing with calcium-free phosphate-buffered saline (PBS; Gibco, cat. no. 14190), and cells were harvested with a rubber-policeman in 4° C. cold and calcium-free PBS supplemented with a protease inhibitor cocktail (complete protease inhibitor; Roche, cat. no. 1697498; 1 tablet per 50 ml) and subsequently centrifuged at 4° C. for 15 min at 1100×g (Heraeus Minifuge T). For cell lysis, the pellet was resuspended in a 4° C. cold hypotonic buffer consisting of 5 mM HEPES (Sigma-Aldrich, cat. no. H-0981), 1 mM EDTA (disodium salt; Merck, cat. No. 8418) supplemented with protease inhibitor cocktail (as above) in which cells were stored for another 15 min on ice. After lysis, cells were centrifuged at 4° C. for 10 min at 400×g (Heraeus Minifuge T). The pellet was disrupted in a Dounce homogenizer, diluted with the supernatant of the previous centrifugation and subsequently centrifuged at 4° C. for 10 min at 500×g (Heraeus Minifuge T) in order to separate nuclei and still intact cells from the membranes mainly present in the supernatant. The supernatant was then diluted in hypotonic buffer and centrifuged (Beckmann, Avanti J251) at approximately 18 600×g for 2 h at 4° C. After centrifugation, the membrane pellet was resuspended in a storing buffer consisting of 20 mM HEPES; 150 mM NaCl (Merck, cat. no. 6400), 1 mM EDTA (as above) supplemented with protease inhibitor cocktail (as above). […] Protein concentration of the membrane preparation was determined in a sample by means of a commercial protein assay (Bio-Rad, DC Protein Assay, cat. nos. 500-0113, 500-0114, 500-0115).
The Edg 1 membrane preparation obtained in (b) was employed in a commercially available scintillation proximity assay (SPA) kit for G-protein coupled receptor binding from Amersham Biosciences/GE Healthcare (code RPNQ0210), in which ligand-induced binding of ^35S-radiolabeled GTP-γ-S to the receptor-containing membrane, which is bound to scintillation beads, stimulates the emission of light and allows to quantify the in vitro activity of the Edg 1 agonistic compound. […]

T1 sequence (P21453 whole entry): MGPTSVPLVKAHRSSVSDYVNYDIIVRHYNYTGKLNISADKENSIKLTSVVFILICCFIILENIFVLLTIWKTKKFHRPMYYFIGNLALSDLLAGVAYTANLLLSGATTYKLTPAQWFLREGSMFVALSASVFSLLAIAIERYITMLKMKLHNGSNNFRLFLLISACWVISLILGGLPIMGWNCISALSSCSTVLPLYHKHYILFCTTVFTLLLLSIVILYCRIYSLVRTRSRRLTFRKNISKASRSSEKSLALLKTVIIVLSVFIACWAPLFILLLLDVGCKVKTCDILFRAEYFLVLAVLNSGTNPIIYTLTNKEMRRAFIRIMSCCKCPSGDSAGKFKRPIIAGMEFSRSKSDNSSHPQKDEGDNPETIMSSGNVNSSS

Edg 1 receptor activation in percent of the activation by 10 μM S1P (% activation) [%] | SMILES
39 | Cc1cc(-c2nc3ccc(Oc4ccccc4F)nc3o2)cc(C)c1OC(C)(C)C(=O)O [Example 3, 2-{4-[5-(2-Fluorophenoxy)oxazolo[5,4-b]pyridin-2-yl]-2,6-dimethylphenoxy}-2-methylpropionic acid]
51 | Cc1cc(-c2nc3ccc(Oc4ccccc4F)nc3o2)cc(C)c1OC(C)C(=O)O (stereo not shown) [Example 2, 2-{4-[5-(2-Fluorophenoxy)oxazolo[5,4-b]pyridin-2-yl]-2,6-dimethylphenoxy}propionic acid]
86 | Cc1cc(-c2nc3ccc(Oc4ccccc4F)nc3o2)cc(C)c1OCC(C)(C)C(=O)O [Example 4, 3-{4-[5-(2-Fluorophenoxy)oxazolo[5,4-b]pyridin-2-yl]-2,6-dimethylphenoxy}-2,2-dimethylpropionic acid]
74 | Cc1cc(-c2nc3ccc(Oc4ccccc4F)nc3o2)cc(C)c1OCC(=O)O [Example 1, {4-[5-(2-Fluorophenoxy)oxazolo[5,4-b]pyridin-2-yl]-2,6-dimethylphenoxy}acetic acid]
